In ChEMBL document CHEMBL1275354, “Anticonvulsant activity of 2,4(1H)-diarylimidazoles in mice and rats acute seizure models” (Bioorg Med Chem, 2010):
Active and inactive are the calls of the source. The rule behind the calls is not given here.

Experiments:
[1] = tested on: Mus musculus; test: Neurotoxicity in ip dosed albino CF1 mouse assessed as minimum dose required to cause toxicity after 0.5 hrs by rotarod test; type: organism-based; settings: in vivo
[2] = tested on: Mus musculus; test: Neurotoxicity in albino CF1 mouse assessed as minimal motor impairment at 30 mg/kg, ip after 0.5 hrs by rotarod test; type: toxicity, organism-based; design: dose 30 mg/kg, route intraperitoneal; settings: in vivo
[3] = tested on: Mus musculus; test: Anticonvulsant activity in albino CF1 mouse assessed as protection against maximal electroshock-induced seizures at 100 mg/kg, ip after 0.5 hrs; type: functional, organism-based; design: dose 100 mg/kg
[4] = tested on: Mus musculus; test: Anticonvulsant activity against subcutaneous metrazole-induced seizures in ip dosed albino CF1 mouse assessed as minimum effective dose after 4 hrs; type: functional; settings: albino CF1, 4 h, read-out: MED
[5] = tested on: Mus musculus; test: Neurotoxicity in albino CF1 mouse assessed as minimal motor impairment at 80 mg/kg, ip after 0.25 hrs by rotarod test; type: toxicity, organism-based; design: dose 80 mg/kg, route intraperitoneal; settings: in vivo
[6] = tested on: Mus musculus; test: Neurotoxicity in albino CF1 mouse assessed as minimal motor impairment at 200 mg/kg, ip after 0.25 hrs by rotarod test; type: toxicity, organism-based; design: dose 200 mg/kg, route intraperitoneal; settings: in vivo
[7] = tested on: Mus musculus; test: Anticonvulsant activity ip dosed albino CF1 mouse assessed as protection against subcutaneous metrazole-induced seizures after 0.25 hrs; type: functional; settings: albino CF1, 0.25 h
[8] = tested on: Mus musculus; test: Neurotoxicity in ip dosed albino CF1 mouse assessed as minimal motor impairment after 0.25 hrs by rotarod test; type: toxicity, organism-based; settings: in vivo
[9] = tested on: Rattus norvegicus; test: Neurotoxicity in albino Sprague-Dawley rat assessed as minimal motor impairment at 30 mg/kg, po by rotarod test; type: toxicity, organism-based; design: dose 30 mg/kg, route oral; settings: in vivo
[10] = tested on: Mus musculus; test: Anticonvulsant activity ip dosed albino CF1 mouse assessed as protection against maximal electroshock-induced seizures after 0.25 hrs; type: functional
[11] = tested on: Rattus norvegicus; test: Anticonvulsant activity in albino Sprague-Dawley rat assessed as protection against maximal electroshock-induced seizures at 30 mg/kg, po after 0.25 hrs; type: functional, organism-based; design: dose 30 mg/kg
[12] = tested on: Rattus norvegicus; test: Anticonvulsant activity in albino Sprague-Dawley rat assessed as protection against maximal electroshock-induced seizures at 30 mg/kg, po after 0.5 hrs; type: functional, organism-based; design: dose 30 mg/kg
[13] = tested on: Rattus norvegicus; test: Anticonvulsant activity in albino Sprague-Dawley rat assessed as protection against maximal electroshock-induced seizures at 30 mg/kg, po after 1 hr; type: functional, organism-based; design: dose 30 mg/kg
[14] = tested on: Rattus norvegicus; test: Anticonvulsant activity in albino Sprague-Dawley rat assessed as protection against maximal electroshock-induced seizures at 30 mg/kg, po after 2 hrs; type: functional, organism-based; design: dose 30 mg/kg
[15] = tested on: Rattus norvegicus; test: Anticonvulsant activity in albino Sprague-Dawley rat assessed as protection against maximal electroshock-induced seizures at 30 mg/kg, po after 4 hrs; type: functional, organism-based; design: dose 30 mg/kg
[16] = tested on: Mus musculus; test: Neurotoxicity in albino CF1 mouse assessed as minimal motor impairment at 30 mg/kg, ip after 4 hrs by rotarod test; type: toxicity, organism-based; design: dose 30 mg/kg, route intraperitoneal; settings: in vivo
[17] = tested on: Mus musculus; test: Neurotoxicity in albino CF1 mouse assessed as minimal motor impairment at 100 mg/kg, ip after 4 hrs by rotarod test; type: toxicity, organism-based; design: dose 100 mg/kg, route intraperitoneal; settings: in vivo
[18] = tested on: Mus musculus; test: Neurotoxicity in albino CF1 mouse assessed as minimal motor impairment at 300 mg/kg, ip after 0.5 hrs by rotarod test; type: toxicity, organism-based; design: dose 300 mg/kg, route intraperitoneal; settings: in vivo
[19] = tested on: Mus musculus; test: Anticonvulsant activity in albino CF1 mouse assessed as protection against maximal electroshock-induced seizures at 100 mg/kg, ip after 4 hrs; type: functional, organism-based; design: dose 100 mg/kg
[20] = tested on: Mus musculus; test: Anticonvulsant activity in albino CF1 mouse assessed as protection against maximal electroshock-induced seizures at 300 mg/kg, ip after 0.5 hrs; type: functional, organism-based; design: dose 300 mg/kg
[21] = tested on: Mus musculus; test: Anticonvulsant activity in albino CF1 mouse assessed as protection against maximal electroshock-induced seizures at 300 mg/kg, ip after 4 hrs; type: functional, organism-based; design: dose 300 mg/kg
[22] = tested on: Mus musculus; test: Anticonvulsant activity in albino CF1 mouse assessed as protection against subcutaneous metrazole-induced seizures at 30 mg/kg, ip after 0.5 hrs; type: functional, organism-based; design: dose 30 mg/kg
[23] = tested on: Mus musculus; test: Anticonvulsant activity in albino CF1 mouse assessed as protection against subcutaneous metrazole-induced seizures at 30 mg/kg, ip after 4 hrs; type: functional, organism-based; design: dose 30 mg/kg
[24] = tested on: Mus musculus; test: Anticonvulsant activity in albino CF1 mouse assessed as protection against subcutaneous metrazole-induced seizures at 100 mg/kg, ip after 0.5 hrs; type: functional, organism-based; design: dose 100 mg/kg
[25] = tested on: Mus musculus; test: Anticonvulsant activity in albino CF1 mouse assessed as protection against subcutaneous metrazole-induced seizures at 100 mg/kg, ip after 4 hrs; type: functional, organism-based; design: dose 100 mg/kg
[26] = tested on: Mus musculus; test: Anticonvulsant activity in albino CF1 mouse assessed as protection against subcutaneous metrazole-induced seizures at 300 mg/kg, ip after 0.5 hrs; type: functional, organism-based; design: dose 300 mg/kg
[27] = tested on: Mus musculus; test: Anticonvulsant activity in albino CF1 mouse assessed as protection against subcutaneous metrazole-induced seizures at 300 mg/kg, ip after 4 hrs; type: functional, organism-based; design: dose 300 mg/kg
[28] = tested on: Mus musculus; test: Anticonvulsant activity in albino CF1 mouse assessed as protection against maximal electroshock-induced seizures at 30 mg/kg, ip after 0.5 hrs; type: functional, organism-based; design: dose 30 mg/kg
[29] = tested on: Mus musculus; test: Anticonvulsant activity in albino CF1 mouse assessed as protection against maximal electroshock-induced seizures at 30 mg/kg, ip after 4 hrs; type: functional, organism-based; design: dose 30 mg/kg
[30] = tested on: Mus musculus; test: Neurotoxicity in ip dosed albino CF1 mouse assessed as minimum dose required to cause toxicity after 4 hrs by rotarod test; type: organism-based; settings: in vivo
[31] = tested on: Mus musculus; test: Anticonvulsant activity against maximal electroshock-induced seizures in ip dosed albino CF1 mouse assessed as minimum effective dose after 0.5 hrs; type: functional; settings: read-out: MED
[32] = tested on: Mus musculus; test: Anticonvulsant activity against maximal electroshock-induced seizures in ip dosed albino CF1 mouse assessed as minimum effective dose after 4 hrs; type: functional; settings: read-out: MED
[33] = tested on: Mus musculus; test: Anticonvulsant activity against subcutaneous metrazole-induced seizures in ip dosed albino CF1 mouse assessed as minimum effective dose after 0.5 hrs; type: functional; settings: albino CF1, 0.5 h, read-out: MED
[34] = tested on: Mus musculus; test: Neurotoxicity in albino CF1 mouse assessed as minimal motor impairment at 30 to 300 mg/kg, ip after 0.5 hrs by rotarod test; settings: in vivo

`c1ccc(-c2c[nH]c(-c3ccccc3)n2)cc1` was tested, and the MED [1] was 100 mg/kg, the Activity [2] was “Non-toxic” and the Activity [3] was “Active”. For the same compound, the minimal effective dose [4] was greater than 300 mg/kg, the Activity [5] was “Non-toxic” and the Activity [6] was “Non-toxic”. The ED50 [7] was 161 mg/kg, the TD50 [8] was 126.8 mg/kg and the Activity [9] was “Non-toxic”. For the same compound, the ED50 [10] was 61.7 mg/kg, the Activity [11] was “inactive” and the Activity [12] was “inactive”. For the same compound, the Activity [13] was “inactive”, the Activity [14] was “inactive” and the Activity [15] was “inactive”. The Activity [16] was “Non-toxic”, the Activity [17] was “Non-toxic” and the Activity [18] was “Toxic”. The Activity [19] was “inactive”, the Activity [20] was “Active” and the Activity [21] was “Active”. The Activity [22] was “inactive”, the Activity [23] was “inactive” and the Activity [24] was “inactive”. For the same compound, the Activity [25] was “inactive”, the Activity [26] was “inactive” and the Activity [27] was “inactive”. The Activity [28] was “Active”, the Activity [29] was “inactive” and the MED [30] was 100 mg/kg. It also gave a minimal effective dose [31] greater than 30 mg/kg, a minimal effective dose [32] of 100 mg/kg and a minimal effective dose [33] greater than 300 mg/kg. The Activity [34] was “Non-toxic”.
